Several values for one entry are separate records, joined by “and”; a condition that tells them apart may be missing. Identical values can stand only once. Toxic doses and inconclusive results are not listed. No stated cut-off is given here; in the data, active means T/C of 150% or more; inactive means T/C below 125%.
System: L1210 leukemia ip in BDF1 mice, survival T/C
Assay: NCI In Vivo Anticancer Drug Screen. Data for tumor model L1210 Leukemia (intraperitoneal) in B6D2F1 (BDF1) mice
Conditions: endpoint: mean survival time, higher = longer survival
Outline: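 Tumor cells were implanted, animals were treated, and survival was followed. The result divides the treated measurement by the vehicle-control measurement.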

[1] = dose: 100.0 mg/kg/injection, schedule: Q04DX003 (ip), vehicle: Klucel (hydroxypropylcellulose) (HPC)
[2] = dose: 100.0 mg/kg/injection, schedule: Q04DX003 (ip), vehicle: saline with Tween-80
[3] = dose: 200.0 mg/kg/injection, schedule: Q04DX003 (ip), vehicle: saline with Tween-80
[4] = dose: 400.0 mg/kg/injection, schedule: Q04DX003 (ip), vehicle: saline with Tween-80
[5] = dose: 100.0 mg/kg/injection, schedule: Q04DX003 (ip), vehicle: saline
[6] = dose: 200.0 mg/kg/injection, schedule: Q04DX003 (ip), vehicle: saline
[7] = dose: 400.0 mg/kg/injection, schedule: Q04DX003 (ip), vehicle: saline
[8] = dose: 100.0 mg/kg/injection, schedule: Q01DX001 (ip), vehicle: saline with Tween-80
[9] = dose: 200.0 mg/kg/injection, schedule: Q01DX001 (ip), vehicle: saline with Tween-80
[10] = dose: 400.0 mg/kg/injection, schedule: Q01DX001 (ip), vehicle: saline with Tween-80
[11] = dose: 100.0 mg/kg/injection, schedule: Q04DX002 (ip), vehicle: Klucel (hydroxypropylcellulose) (HPC)
[12] = dose: 200.0 mg/kg/injection, schedule: Q04DX002 (ip), vehicle: Klucel (hydroxypropylcellulose) (HPC)

Measured: T/C

OCC1OC(n2cnc3c(NCCCCNc4ncnc5c4ncn5C4OC(CO)C(O)C4O)ncnc32)C(O)C1O (stereo unspecified)
inactive: dose: 100.0 mg/kg/injection, schedule: Q01DX005 (ip), vehicle: saline 100 % of control | dose: 200.0 mg/kg/injection, schedule: Q01DX005 (ip), vehicle: saline 108 % of control

COc1ccc2c(c1)CCC1=C2CCC(C)(C(C)=O)C1C(=O)O (stereo unspecified)
inactive: dose: 25.0 mg/kg/injection, schedule: Q01DX009 (ip), vehicle: Klucel (hydroxypropylcellulose) (HPC) 101 % of control | dose: 25.0 mg/kg/injection, schedule: Q04DX003 (ip), vehicle: Klucel (hydroxypropylcellulose) (HPC) 97 % of control | dose: 50.0 mg/kg/injection, schedule: Q01DX009 (ip), vehicle: Klucel (hydroxypropylcellulose) (HPC) 98 % of control | dose: 50.0 mg/kg/injection, schedule: Q04DX003 (ip), vehicle: Klucel (hydroxypropylcellulose) (HPC) 100 % of control | dose: 100.0 mg/kg/injection, schedule: Q01DX009 (ip), vehicle: Klucel (hydroxypropylcellulose) (HPC) 95 % of control | [1] 102 % of control and 87 % of control

CCc1ccc(N)cc1
inactive: dose: 10.0 mg/kg/injection, schedule: Q01DX001 (ip), vehicle: saline 102 % of control | dose: 20.0 mg/kg/injection, schedule: Q01DX001 (ip), vehicle: saline 102 % of control | dose: 40.0 mg/kg/injection, schedule: Q01DX001 (ip), vehicle: saline 111 % of control

CC(C)[N+](C(C)C)(C(C)C)C(C)C.[I][Pb]([I])([I])[I]
inactive: [2] 95 % of control | [3] 98 % of control | [4] 93 % of control

COC(=O)C(C)CC(C)(C=O)OC (stereo unspecified)
inactive: [5] 93 % of control | [6] 89 % of control | [7] 89 % of control

C1CCC2(CC1)SSC1(CCCCC1)S2
inactive: dose: 100.0 mg/kg/injection, schedule: Q04DX003 (ip), vehicle: other 95 % of control | dose: 200.0 mg/kg/injection, schedule: Q04DX003 (ip), vehicle: other 98 % of control | dose: 400.0 mg/kg/injection, schedule: Q04DX003 (ip), vehicle: other 98 % of control

COc1cc([N+](=O)[O-])c(Cl)cc1NS(=O)(=O)c1ccccc1
inactive: dose: 100.0 mg/kg/injection, schedule: Q01DX009 (ip), vehicle: saline with Tween-80 100 % of control | [2] 97 % of control | dose: 133.0 mg/kg/injection, schedule: Q04DX003 (ip), vehicle: saline with Tween-80 95 % of control and 89 % of control | dose: 200.0 mg/kg/injection, schedule: Q01DX009 (ip), vehicle: saline with Tween-80 103 % of control | dose: 300.0 mg/kg/injection, schedule: Q04DX003 (ip), vehicle: saline with Tween-80 95 % of control and 92 % of control | dose: 400.0 mg/kg/injection, schedule: Q01DX009 (ip), vehicle: saline with Tween-80 89 % of control | [4] 95 % of control

Cc1ccccc1SC(=O)Nc1cc([N+](=O)[O-])ccc1Cl
inactive: dose: 100.0 mg/kg/injection, schedule: Q01DX001 (ip), vehicle: carboxymethylcellulose (CMC) 94 % of control and 90 % of control | dose: 100.0 mg/kg/injection, schedule: Q01DX009 (ip), vehicle: carboxymethylcellulose (CMC) 96 % of control | dose: 100.0 mg/kg/injection, schedule: Q04DX002 (ip), vehicle: carboxymethylcellulose (CMC) 97 % of control and 99 % of control | dose: 100.0 mg/kg/injection, schedule: Q04DX003 (ip), vehicle: carboxymethylcellulose (CMC) 89 % of control | dose: 200.0 mg/kg/injection, schedule: Q01DX001 (ip), vehicle: carboxymethylcellulose (CMC) 94 % of control and 88 % of control | dose: 200.0 mg/kg/injection, schedule: Q01DX009 (ip), vehicle: carboxymethylcellulose (CMC) 98 % of control | dose: 200.0 mg/kg/injection, schedule: Q04DX002 (ip), vehicle: carboxymethylcellulose (CMC) 94 % of control and 101 % of control | dose: 200.0 mg/kg/injection, schedule: Q04DX003 (ip), vehicle: carboxymethylcellulose (CMC) 96 % of control and 91 % of control | dose: 400.0 mg/kg/injection, schedule: Q01DX001 (ip), vehicle: carboxymethylcellulose (CMC) 97 % of control and 90 % of control | dose: 400.0 mg/kg/injection, schedule: Q01DX009 (ip), vehicle: carboxymethylcellulose (CMC) 94 % of control | dose: 400.0 mg/kg/injection, schedule: Q04DX002 (ip), vehicle: carboxymethylcellulose (CMC) 95 % of control and 101 % of control | dose: 400.0 mg/kg/injection, schedule: Q04DX003 (ip), vehicle: carboxymethylcellulose (CMC) 96 % of control and 92 % of control

CC1=C(C)CC(/C(=N\Nc2ccc([N+](=O)[O-])cc2[N+](=O)[O-])c2ccccc2)CC1 (stereo unspecified)
inactive: [8] 89 % of control | [9] 89 % of control | [10] 96 % of control

CCN1C(/C=C/c2ccc(O)c3ncccc23)CCC2CC(C)CCC21 (stereo unspecified)
inactive: dose: 75.0 mg/kg/injection, schedule: Q01DX001 (ip), vehicle: saline 117 % of control | dose: 150.0 mg/kg/injection, schedule: Q01DX001 (ip), vehicle: saline 119 % of control | dose: 300.0 mg/kg/injection, schedule: Q01DX001 (ip), vehicle: saline 120 % of control

CCC(CC)(CO)CO
inactive: dose: 25.0 mg/kg/injection, schedule: Q01DX009 (ip), vehicle: saline 96 % of control | dose: 25.0 mg/kg/injection, schedule: Q04DX003 (ip), vehicle: saline 96 % of control | dose: 50.0 mg/kg/injection, schedule: Q01DX009 (ip), vehicle: saline 96 % of control | dose: 50.0 mg/kg/injection, schedule: Q04DX003 (ip), vehicle: saline 102 % of control | dose: 100.0 mg/kg/injection, schedule: Q01DX009 (ip), vehicle: saline 92 % of control | [1] 103 % of control | [5] 91 % of control | dose: 200.0 mg/kg/injection, schedule: Q01DX009 (ip), vehicle: saline 96 % of control | dose: 200.0 mg/kg/injection, schedule: Q04DX003 (ip), vehicle: Klucel (hydroxypropylcellulose) (HPC) 94 % of control | [6] 91 % of control | dose: 400.0 mg/kg/injection, schedule: Q01DX009 (ip), vehicle: saline 96 % of control | dose: 400.0 mg/kg/injection, schedule: Q04DX003 (ip), vehicle: Klucel (hydroxypropylcellulose) (HPC) 97 % of control | [7] 107 % of control

COC(=O)c1cc(NC(=O)Nc2cc(C(F)(F)F)ccc2Cl)cc(C(=O)OC)c1
inactive: [11] 112 % of control | [12] 105 % of control | dose: 400.0 mg/kg/injection, schedule: Q04DX002 (ip), vehicle: Klucel (hydroxypropylcellulose) (HPC) 105 % of control

CC(C)(C)C(=O)Nc1ccc(NS(=O)(=O)c2ccccc2)c(Cl)c1
inactive: dose: 50.0 mg/kg/injection, schedule: Q01DX001 (ip), vehicle: Klucel (hydroxypropylcellulose) (HPC) 108 % of control | dose: 100.0 mg/kg/injection, schedule: Q01DX001 (ip), vehicle: Klucel (hydroxypropylcellulose) (HPC) 97 % of control | dose: 200.0 mg/kg/injection, schedule: Q01DX001 (ip), vehicle: Klucel (hydroxypropylcellulose) (HPC) 109 % of control

CCOc1cccc(Cc2cn(Cc3cccc(NC(=O)c4ccccc4)c3)c(=O)[nH]c2=O)c1
inactive: [8] 93 % of control | [9] 96 % of control | [10] 95 % of control

O=[n+]1ccn2cc3ccccc3cc2c1
inactive: dose: 12.5 mg/kg/injection, schedule: Q01DX009 (ip), vehicle: saline with Tween-80 105 % of control

O=C(O)c1cccc([N+](=O)[O-])c1
inactive: dose: 50.0 mg/kg/injection, schedule: Q04DX002 (ip), vehicle: Klucel (hydroxypropylcellulose) (HPC) 88 % of control | [11] 94 % of control

Cc1c2cnccc2c(C)c2c1sc1ccccc12
inactive: dose: 75.0 mg/kg/injection, schedule: Q01DX001 (ip), vehicle: other 101 % of control | dose: 150.0 mg/kg/injection, schedule: Q01DX001 (ip), vehicle: other 106 % of control | dose: 300.0 mg/kg/injection, schedule: Q01DX001 (ip), vehicle: other 124 % of control

CCc1nc(NN)nc(CC)c1-c1ccccc1O
inactive: [11] 105 % of control | [12] 91 % of control

Cc1ccc(N=Cc2cc(I)cc(I)c2O)cc1.Cc1ccc(N=Cc2cc(I)cc(I)c2O)cc1.[Co]
inactive: [2] 92 % of control | [3] 102 % of control and 91 % of control | [4] 96 % of control and 89 % of control

O=[N+]([O-])c1ccc(N/N=C2\CCCc3c2ccc2ccccc32)c([N+](=O)[O-])c1
inactive: dose: 100.0 mg/kg/injection, schedule: Q01DX001 (ip), vehicle: saline 97 % of control | dose: 200.0 mg/kg/injection, schedule: Q01DX001 (ip), vehicle: saline 92 % of control | dose: 400.0 mg/kg/injection, schedule: Q01DX001 (ip), vehicle: saline 103 % of control

Source: PubChem BioAssay AID248 (DTP/NCI, 2004)
